Data on four compounds can be found in patent US20040191811A1, “Methods for measuring levels of uridine-diphosphate-N-acetylglucosamine and activity of inhibitors thereof” (priority 2002, published 2004).

Where two headings read alike, the source gives them in different places.

In one test the target is T1, GFAT-beta (Homo sapiens, UniProt O94808).
T1 construct: made in house; host or cells: SF9 insect cells (sonicated, centrifuged cell extract, not purified)
As to the kind of experiment: GFAT-beta inhibition, microtiter plate glucosamine 6-phosphate assay. The class given is biochemical. The protocol:
Stimulation of GFAT activity. […] For most testing, a 60-minute incubation at 37° C. is carried out in 96 well microtiter plates. To give the best heat transfer the plates are sealed with a Costar plate sealer and floated on a 37° C. water bath. Air bubbles are removed from the bottom of the plate to ensure proper heat transfer to all wells. […] A mixture of the incubation reagents is kept on ice and the enzyme is added to the mixture just before addition to the plate. Additional incubation mixture is kept on ice to add to standard and control samples. […] If test agents are to be used, 10 μl is added to the appropriate wells and the vehicle is added to the control wells before addition of the incubation mixture. 15 wells are left blank for addition of control and standard glucosamine 6-phosphate samples. After the incubation, 10 μl of the standards made up in the appropriate vehicle (DMSO) are added to the appropriate wells.

In the next test the target is T2, GFAT-alpha (Homo sapiens, UniProt Q06210).
T2 construct: made in house; host or cells: SF9 insect cells (sonicated, centrifuged cell extract, not purified)
In words: GFAT-alpha inhibition, microtiter plate glucosamine 6-phosphate assay. The note with it: enzyme expressed in SF9 insect cells; glutamine 10 mM, fructose 6-phosphate 10 mM; 60 minutes at 37° C. The class given is biochemical. Here is the method: Enzyme preparation. GFAT-alpha (GenBank Accession No. M90516) and GFAT-beta (Accession No. AB016789) are cloned into pET12 and pEF-BOS C vectors (New England BioLabs) for transfection into SF9 and Hi5 insect cells, COS, type 293 cells, and E.coli. Endogenous activity for each cell line was also measured in non-transfected cells. The enzymes are expressed in each cell line by growing in large 24×24 cm plates and harvesting 20 hours after transfection. The media is removed and the plates are washed in 15 ml PBS. 1.5 ml of a lysis buffer (PBS 1×, KCl 50 mM, EDTA 10 mM, with protease inhibitors leupeptin 10 ug/ml, PMSF 20 ug/ml, A-protinin 30 ug/ml, and pepstatin 10 ug/ml) is added to each plate and the cells are removed using a large plastic cell scraper. […] The cell #/lysis volume is about 4×10^7cell/ml. The suspension is sonicated on ice (Branson sonicator setting 2.5 to 3) for 15 seconds using a microtip. The sonicated cell extracts are stored in microfuge tubes at −80° C. Before use, the extracts are centrifuged at 15000×g for 5 minutes at 4° C. Each enzyme preparation is titrated to determine the volume that gives between 20 to 30 umoles of glucosamine 6-phosphate in a reaction mixture in a 60-minute incubation at 37° C. (FIGS. 1A and 1B).
Stimulation of GFAT activity. […] For most testing, a 60-minute incubation at 37° C. is carried out in 96 well microtiter plates. To give the best heat transfer the plates are sealed with a Costar plate sealer and floated on a 37° C. water bath. Air bubbles are removed from the bottom of the plate to ensure proper heat transfer to all wells. The 100 μl reaction volume consists of glutamine 10 mM, fructose 6-phosphate 10 mM, PBS 1×, EDTA 5 mM, DTT 1 mM and the enzyme preparation. A mixture of the incubation reagents is kept on ice and the enzyme is added to the mixture just before addition to the plate. Additional incubation mixture is kept on ice to add to standard and control samples. […] If test agents are to be used, 10 μl is added to the appropriate wells and the vehicle is added to the control wells before addition of the incubation mixture. […] A concentration range of 2.5 to 30 umoles is in the linear portion of the curve and covers the quantity of glucosamine 6-phosphate produced under the incubation conditions (FIG. 4). The cold mixture is added to the standard sample wells and the glucosamine 6-phosphate is then measured.
Measurement of glucosamine 6-phosphate The reaction is started by adding the incubation mixture to the appropriate wells in a microtiter plate and placing the plate on a 37° C. water bath. […] The acetylated glucosamine is measured by the Morgan and Elson color reaction (Morgan. W. T. J. & Elson, L. A. (1934).Biochem. J. 28, 988). […]

Where [1] appears, read: enzyme expressed in SF9 insect cells, glutamine 10 mM, fructose 6-phosphate 10 mM, 60 minutes at 37° C., read-out: IC50 for inhibition of GFAT-beta.

T2 sequence (Q06210 1-681 isoform Q06210-2): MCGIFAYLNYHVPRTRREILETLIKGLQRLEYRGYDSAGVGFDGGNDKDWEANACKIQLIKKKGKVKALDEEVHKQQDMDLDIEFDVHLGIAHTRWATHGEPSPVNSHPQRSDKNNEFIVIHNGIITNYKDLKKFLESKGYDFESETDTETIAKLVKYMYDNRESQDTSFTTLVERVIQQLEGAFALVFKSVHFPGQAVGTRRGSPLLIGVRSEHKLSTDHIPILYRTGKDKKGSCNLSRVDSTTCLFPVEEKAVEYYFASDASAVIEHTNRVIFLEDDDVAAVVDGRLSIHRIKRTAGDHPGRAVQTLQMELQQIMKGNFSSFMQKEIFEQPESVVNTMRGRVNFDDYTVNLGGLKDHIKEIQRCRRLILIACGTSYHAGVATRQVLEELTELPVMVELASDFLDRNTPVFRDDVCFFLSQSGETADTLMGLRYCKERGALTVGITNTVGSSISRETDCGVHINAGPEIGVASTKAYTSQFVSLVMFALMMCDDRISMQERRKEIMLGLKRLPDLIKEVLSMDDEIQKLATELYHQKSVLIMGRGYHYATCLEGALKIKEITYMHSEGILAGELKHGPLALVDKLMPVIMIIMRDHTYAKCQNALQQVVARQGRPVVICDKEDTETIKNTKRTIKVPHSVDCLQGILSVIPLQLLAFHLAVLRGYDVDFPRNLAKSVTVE
T1 sequence (O94808 whole entry): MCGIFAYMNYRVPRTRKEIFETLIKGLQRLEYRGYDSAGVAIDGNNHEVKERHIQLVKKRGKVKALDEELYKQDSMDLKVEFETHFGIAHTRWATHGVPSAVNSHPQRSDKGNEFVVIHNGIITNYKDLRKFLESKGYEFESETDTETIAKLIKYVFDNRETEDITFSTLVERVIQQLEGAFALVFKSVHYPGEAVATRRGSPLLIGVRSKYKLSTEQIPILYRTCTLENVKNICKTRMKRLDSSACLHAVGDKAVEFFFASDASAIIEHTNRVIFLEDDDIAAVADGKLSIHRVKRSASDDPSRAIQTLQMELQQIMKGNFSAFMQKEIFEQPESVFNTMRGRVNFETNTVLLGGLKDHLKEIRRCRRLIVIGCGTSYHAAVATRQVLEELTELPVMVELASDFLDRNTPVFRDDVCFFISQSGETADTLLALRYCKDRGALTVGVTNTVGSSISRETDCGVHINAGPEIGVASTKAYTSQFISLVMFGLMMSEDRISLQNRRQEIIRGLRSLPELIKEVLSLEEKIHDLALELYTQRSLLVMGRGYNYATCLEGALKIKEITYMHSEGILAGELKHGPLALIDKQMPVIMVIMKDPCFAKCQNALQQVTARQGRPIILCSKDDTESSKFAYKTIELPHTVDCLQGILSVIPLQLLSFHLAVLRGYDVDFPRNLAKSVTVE

For `N[C@@H](CNC(=O)CBr)C(=O)O` [N3-(bromoacetyl)-L-2,3-diaminopropanoic acid], the half-inhibitory concentration (IC50) (as a rule, the concentration that inhibits the measured activity by half) at GFAT-beta (setting [1]) came to 0.27 µM; against GFAT-alpha, 0.38 µM.
Regarding `COC(=O)/C=C/C(=O)NC[C@H](N)C(=O)O` [FMDP, N3-(-4-methoxyflumaroyl)-L-2,3-diaminopropanoic acid], the figures for the IC50 at GFAT-beta (setting [1]) and at GFAT-alpha were 2.3 µM and 4 µM, respectively.
Regarding `[N-]=[N+]=CC(=O)CC[C@H](N)C(=O)O` [DON, 6-diazo-5-oxo-L-norleucine], the IC50 at GFAT-beta and against GFAT-alpha was 18 µM throughout.
“uridine-diphosphate-N-acetylglucosamine [UDP-N-acetylglucosamine]”: the IC50 was determined as 100 µM at GFAT-beta (setting [1]) and 8 µM at GFAT-alpha. Further, the “times as much required to inhibit GFAT-beta compared with GFAT-alpha” value at GFAT-beta (ratio of IC50 GFAT-beta to IC50 GFAT-alpha) is “more than 12 times”.
